Data reported in BigSolDB 2.1.

O=[N+]([O-])c1ccc(O)c2ncccc12
solubility (mole fraction)
Conditions | in acetic acid | in acetone | in acetonitrile | in ethanol | in ethyl acetate | in isopropanol | in methanol | in n-butanol | in n-propanol | in toluene
278.15 K | 0.00224 | 0.00398 | 0.00113 | 0.000575 | 0.00339 | 0.0005 | 0.000443 | 0.000606 | 0.000562 | 0.00229
280.65 K | 0.00239 | 0.00429 | 0.00124 | 0.000625 | 0.00369 | 0.000548 | 0.000486 | 0.000663 | 0.000608 | 0.00247
283.15 K | 0.00259 | 0.00461 | 0.00137 | 0.000682 | 0.004 | 0.000605 | 0.000531 | 0.000726 | 0.000675 | 0.00269
285.65 K | 0.0028 | 0.00498 | 0.00151 | 0.00075 | 0.00437 | 0.000672 | 0.000586 | 0.000797 | 0.000748 | 0.00293
288.15 K | 0.00303 | 0.00538 | 0.00165 | 0.00082 | 0.00476 | 0.000741 | 0.000643 | 0.000867 | 0.000814 | 0.00317
290.65 K | 0.00328 | 0.0058 | 0.0018 | 0.000901 | 0.00517 | 0.000816 | 0.000701 | 0.000961 | 0.000899 | 0.00345
293.15 K | 0.00355 | 0.00624 | 0.00197 | 0.000988 | 0.00564 | 0.000897 | 0.000763 | 0.00105 | 0.00099 | 0.00377
295.65 K | 0.00383 | 0.00668 | 0.00214 | 0.00108 | 0.0061 | 0.000974 | 0.00083 | 0.00116 | 0.00109 | 0.00408
298.15 K | 0.00416 | 0.00721 | 0.00233 | 0.00118 | 0.00667 | 0.00107 | 0.000904 | 0.00128 | 0.00119 | 0.00444
300.65 K | 0.00449 | 0.00773 | 0.00256 | 0.00128 | 0.00724 | 0.00118 | 0.000981 | 0.00139 | 0.00131 | 0.00481
303.15 K | 0.00484 | 0.00831 | 0.00279 | 0.00139 | 0.00786 | 0.00129 | 0.00107 | 0.00153 | 0.00143 | 0.00518
305.65 K | 0.0052 | 0.00888 | 0.00304 | 0.00152 | 0.00857 | 0.00141 | 0.00116 | 0.00166 | 0.00157 | 0.00562
308.15 K | 0.00559 | 0.00956 | 0.00334 | 0.00166 | 0.00929 | 0.00154 | 0.00127 | 0.0018 | 0.0017 | 0.00609
310.65 K | 0.00601 | 0.0103 | 0.00366 | 0.00182 | 0.01 | 0.00168 | 0.00138 | 0.00197 | 0.00186 | 0.0066
313.15 K | 0.00649 | 0.0111 | 0.00403 | 0.00199 | 0.0109 | 0.00183 | 0.00149 | 0.00217 | 0.00204 | 0.00715
